# In US20030083271A1, “Topoisomerase I selective cytotoxic sugar derivatives of indolopyrrolocarbazoles” (priority 2001, published 2003):
# Assays:
# [1] = molecular target: T1, purified human topoisomerase I (Homo sapiens, UniProt P11387); assay: Topoisomerase I-mediated single strand DNA break induction (in vitro); format: biochemical; conditions: median effect concentration for inducing single-strand breaks in the DNA substrate; read-out: Topo I EC50
# T1 construct: purchased Topogen
# T1 sequence (P11387 1-765): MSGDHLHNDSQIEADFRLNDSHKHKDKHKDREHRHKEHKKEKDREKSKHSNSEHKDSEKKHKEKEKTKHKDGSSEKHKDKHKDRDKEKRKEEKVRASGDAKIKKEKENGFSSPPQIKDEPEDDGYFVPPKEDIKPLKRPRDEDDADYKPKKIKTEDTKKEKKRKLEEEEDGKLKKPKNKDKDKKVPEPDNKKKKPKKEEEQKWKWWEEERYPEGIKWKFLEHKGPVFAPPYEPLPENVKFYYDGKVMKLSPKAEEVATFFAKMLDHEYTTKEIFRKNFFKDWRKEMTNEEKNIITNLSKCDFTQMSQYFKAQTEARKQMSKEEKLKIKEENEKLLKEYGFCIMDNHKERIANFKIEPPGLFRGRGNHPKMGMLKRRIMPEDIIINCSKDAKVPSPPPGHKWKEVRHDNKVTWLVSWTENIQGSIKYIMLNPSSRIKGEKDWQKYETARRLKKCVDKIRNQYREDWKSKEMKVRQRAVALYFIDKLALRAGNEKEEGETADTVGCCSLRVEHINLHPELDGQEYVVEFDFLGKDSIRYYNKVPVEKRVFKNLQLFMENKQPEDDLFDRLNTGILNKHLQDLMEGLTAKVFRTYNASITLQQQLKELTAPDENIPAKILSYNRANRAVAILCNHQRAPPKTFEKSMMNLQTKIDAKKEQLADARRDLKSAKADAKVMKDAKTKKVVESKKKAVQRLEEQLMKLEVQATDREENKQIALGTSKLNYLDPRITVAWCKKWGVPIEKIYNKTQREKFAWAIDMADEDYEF
# Procedure: Topoisomerase I activity was measured as described below. The procedure for assaying compound-induced, topoisomerase I-mediated single strand breaks in DNA was essentially that described by Hsiang, et al., (J. Biol. Chem. 1985, 260, 14873-14878). Samples dissolved in 100% DMSO as either […] or 10 mg/ml solutions, unless otherwise stated, were diluted in Tris-EDTA buffer. Marine bacteriophage PM2 DNA (Boehringer Mannheim) was also diluted in Tris-EDTA buffer to a concentration of 0.02 μg/μl. Different dilutions of the compound being evaluated were mixed with diluted DNA and this mixture was added to […] (one unit of enzyme activity is defined as the amount capable of relaxing 100 ng of supercoiled DNA in approximately 30 minutes at 37° C.) aliquots of purified human topoisomerase I (Topogen) in 2X reaction buffer to start the reaction. The compound-DNA-enzyme mixture was incubated for 30 minutes at 37° C. before stopping the reaction with warm stop buffer containing sodium dodecyl sulfate and proteinase K (Sigma). These mixtures were allowed to incubate at 37° C. for another 10 minutes, at which time the mixtures were removed from the waterbath and extracted with a 24:1 mixture of chloroform/isoamyl alcohol. Following centrifugation, aliquots of the aqueous phases were placed in wells of a 0.9% agarose (SeaKem) gel in Tris-borate buffer containing 0.5 μg/ml of ethidium bromide and subjected to electrophoresis for 15 hours to separate the different topological isomers and nicked and broken DNAs. After destaining the gel in water, the ethidium bromide stained DNA reaction products were visualized by exposing the gel to UV irradiation. Negatives of the photographs of the irradiated gels were scanned with a densitometer and areas under the peaks were calculated in order to obtain percent single strand DNA break formation for each sample. A median effective concentration (EC50) was obtained for each compound by interpolation between points of the resulting dose-effect curve which defines the potency of the compound for its effect in inducing topoisomerase I-mediated single strand breaks in DNA. The topoisomerase I activities for certain compounds of the present invention are shown below in Table I.
# P388/CPT45 cells [2] = assay: Cytotoxicity in camptothecin-resistant P388/CPT45 cells relative to parental P388 (selectivity index R/S); format: cell-based, murine; conditions: IC50 P388/CPT45 cells divided by IC50 parental P388 cells
# Excerpt: The present invention includes fluoro sugar and other sugar derivatives of indolopyrrolocarbazoles of formula (I), as defined above. […] Most importantly, the instant invention describes topo I active compounds, related to compounds disclosed in WO 98/07433 and co-pending U.S. application, Ser. No. 08/914566 (both herein incorporated by reference), which display a surprising and unexpected selectivity index when evaluated for cytotoxicity in certain cell lines which express normal levels of topo I required for cell proliferation, compared with cell lines that are deficient in or underexpress topo I. Said “selectivity index” (R/S) was generated by dividing the cytotoxic IC50 of a particular compound against a camptothecin-resistant murine leukemia cell line, P388/CPT45, by the IC50 generated when using the parent P388 cell line. […] A level of selectivity was judged to be advantageous and beneficial in, for example, modulating potential undesirable side effects and/or toxicity. The compounds of the present invention were selected from compounds generically disclosed in WO 98/07433 and co-pending U.S. patent application, Ser. No. 08/914566, on the basis of an unexpected and unpredictable selectivity index (see Table I and II). […] Simple changes in the substitution of the sugar portion or the indolopyrrolocarbazole portion of the present invention will change the selectivity. This change in selectivity is not predictable by one skilled in the art.
# (§1) Similarly, P338 murine leukemia cells were maintained in RPMI 1640 supplemented with 20% fetal bovine serum and 10 μM 2-mercaptoethanol. A camptothecin resistant subline, P388/CPT45, was selected for resistance to camptothecin and is over 1000-fold resistant to this compound (Woessner, et al. Oncol. Res. 1992, 4, 481-488).
# (§2) In vitro cytotoxicity was assessed in tissue culture cells by MTS (3-(4,5-dimethylthiazol-2-yl)-5-(3-carboxymethoxyphenyl)-2-(4-sulphenyl)-2H-tetrazolium, inner salt) assay (Riss and Moravec, Mol. Biol. Cell 1992, 3 (Suppl.), 184a). Cells were plated at 8,000 cell/well in 96 well microtiter plates and 24 hours later serial dilutions of the test compounds were made and added to the cells. The cells were incubated at 37° C. for 72 hours, at which time the tetrazolium dye, MTS at 333 μg/ml (final concentration), in combination with the electron coupling agent phenazine methosulfate at 25 μM (final concentration) was added. A dehydrogenase enzyme in live cells reduces the MTS to a form that absorbs light at 492 nm which can be quantitated spectrophotometrically. The greater the absorbance the greater the number of live cells. The results are expressed as an IC50, which is the drug concentration required to inhibit cell proliferation (i.e., absorbance at 492 nm) to 50% of that of untreated control cells.
# The selectivity index (R/S) is defined as the ratio obtained by dividing the IC50 value obtained using P388/CPT45 cells by that obtained using parental P388 cells. The R/S ratios used to determine the relative topo I selectivity of selected compounds of this invention are shown below in Table I.
# HT-29 colon carcinoma = assay: In vivo antitumor activity, HT-29 xenograft; set-up: species or system Balb/c athymic (nude) female mice
# Procedure: Compounds: Examples of this invention were administered in an appropriate vehicle such as cremophor/ethanol/water (10%/10%/80%), in normal saline, water/carboxymethylcellulose vehicle.
# All compounds were tested at several dose levels, with attempts each time to achieve their maximum tolerated dose (MTD). […] The optimal dose (OD) was the dose producing the best therapeutic effect, and was usually, but not always, synonymous with the MTD.
# Tumors: Human tumors (HCT-116 and HT-29 colon carcinomas) were grown as xenografts in Balb/c athymic (nude) female mice. Antitumor assays. All tumors were implanted subcutaneously (sc) as 3-4mm fragments using a 13 gauge trochar. There were generally eight mice per treatment and control group. When treatment was delayed until tumors had obtained a certain size (weight), referred to as a staged tumor experiment (expt.), tumor-bearing mice were selected so that their tumors fell within a limited range of sizes for the particular expt.
# Tumors were measured by calipers, and tumor weight calculated by the formula length (mm) times (×) width (mm)^2/2=tumor weight (mg). The median time (in days) to reach a predetermined tumor target size (for example, 500 mg) for untreated, control (C) mice relative to the time to reach the same target size for treated (T) mice, was calculated as a T-C value. T-C values were divided by the tumor volume doubling time (TVDT), and multiplied by 3.32, to yield a gross log cell kill (LCK) value, [i.e., (T-C)/TVDT×3.32=LCK].
# A mouse was considered cured if there was no palpable tumor after a period of time equal to 10×TVDT post-reatment (Rx).
# P388/CPT45 cells [3] = conditions: P388/CPT45 versus parental P388; cited from earlier work
# [4] = tested on: P388 murine leukemia cells; assay: In vitro cell-based cytotoxicity, parental P388 cells; conditions: Mus musculus, 72 h, median cytotoxic concentration, 3 days continuous exposure
# Procedure: The proliferation inhibition activity against the murine P388 cell line was measured as follows. Evaluation of a soluble tetrazolium/formazan assay for cell growth and drug sensitivity in culture, using human and other tumor cell lines, was done according to the procedure described in Cancer Res. 1988, 48, 4827-4833. Cells were plated at 4000 cells/well in 96 well microtiter plates and 24 h later drugs were added and serially diluted. The cells were incubated at 37° C. for 72 h, at which time a tetrazolium dye, XTT, containing phenazine methosulfate was added. A dehydrogenase enzyme in live cells reduced the XTT to a form that absorbs light at 450 nm, which could be quantitated spectrophotometrically. The greater the absorbance the greater the number of live cells. The results are expressed as an IC50, which is the drug concentration required to inhibit cell proliferation (i.e., absorbance at 450 nm) to 50% of that of untreated control cells.
# as §1, §2
# The cytotoxic activity for certain compounds of the present invention, in both parental P388 and the camptothecin-resistant P388/CPT45 cell lines are shown below in Table I.
Compound,EC50 [1] [nM],Selectivity Index R/S (P388/CPT45 cells [2]),"LCK (gross log cell kill) (HT-29 colon carcinoma; HT29 sc xenograft in nude mice, at optimal or maximum tolerated dose, CPT-11 run as comparator in same experiment)","MTD (optimal or maximum tolerated dose level tested) (HT-29 colon carcinoma; HT29 xenograft experiment, nude mice) [mpkpi]",fold resistance of P388/CPT45 subline (P388/CPT45 cells [3]),IC50 [4] [nM]
"O=C1NC(=O)c2c1c1c3cc(F)c(F)cc3sc1c1c2c2cc(F)c(F)cc2n1[C@@H]1O[C@H](CO)C(F)(F)[C@H](O)[C@H]1O [Example 30, 12-[4,4-Difluoro-4-deoxy-β-D-glucopyranosyl]-2,3,9,10-tetrafluoro-5H, 13H-benzo[b]thienyl[2,3-a]pyrrolo[3,4c]carbazole-5,7(6H)-dione]",10,575.5,>1.4,16,,
CC[C@@]1(O)C(=O)OCc2c1cc1n(c2=O)Cc2cc3ccccc3nc2-1 [camptothecin],,,,,over 1000 fold,
NC[C@H]1O[C@@H](n2c3ccc(F)cc3c3c4c(c5c6ccccc6sc5c32)C(=O)NC4=O)[C@H](O)[C@@H](O)[C@@H]1O [Example 36],180,<1.1,,,,8990
O=C1NC(=O)c2c1c1c3ccc(F)cc3[nH]c1c1c2c2ccc(F)cc2n1[C@@H]1O[C@H](CO)[C@@H](O)[C@H](O)[C@H]1O [Example 37],240,8.7,,,,260
"O=C1NC(=O)c2c1c1c3cc(F)c(F)cc3sc1c1c2c2cc(F)c(F)cc2n1[C@@H]1O[C@H](CF)[C@@H](O)[C@H](O)[C@H]1O [Example 8, 13-[6-Dideoxy-6-fluoro-β-D-glucopyranosyl]-2,3,9,10-tetrafluoro-5H,13H-benzo[b]thienyl[2,3-a]pyrrolo[3,4-c]carbazole-5,7(6H)-dione]",120,119.1,,,,52
O=C1NC(=O)c2c1c1c3cc(F)ccc3[nH]c1c1c2c2cc(F)ccc2n1[C@@H]1O[C@H](CF)C[C@H](O)[C@H]1O [Example 15],30,>149.7,,,,5
